In assay [1] the test system is acetylcholinesterase (AChE). The assay is described as follows: SpinDx pulldown AChE activity assay in human sample matrices with or without inhibition by paraoxon. The format is biochemical. Conditions: pooled human tears, acetylthiocholine fluorogenic substrate. The source says:
For this reason, we developed a SpinDx-based assay to provide information on (non-specific) inhibition of cholinesterase (ChE), such that the SpinDx test at a minimum provides information similar to that which can be obtained with the existing Test-mate ChE test, but in a simpler, more portable format. The term “SpinDx-based assay,” as used herein, refers to a bead-based assay format that employs a centrifugal microfluidic disc for transporting such beads (e.g., as described in FIG. 1A-1B and FIG. 3A-3D).
Our SpinDx assay can include components for a fluorescent analog of the Ellman's assay, loaded within the density medium. Upon spinning the disk, the capture beads, but not the blood sample or erythrocytes, will partition into the density medium. […]
We tested the assay extensively in buffer prior to translating to human bodily fluids, using either heat or paraoxon to inhibit the AChE cholinesterase activity. We determined that, in buffer, our limit of detection (LOD) for AChE with the SpinDx assay was between 0.005 and 0.01 mU/mL, with a limit of quantitation (LOQ) of 0.015 to 0.024 mU/mL, depending on the time of incubation (shorter incubations actually gave lower limits of detection and quantitation, perhaps because the fluorogenic assay inherently has a slow signal generation over time due to spontaneous hydrolysis of the substrate). […]

The subject of assay [2] is acetylcholinesterase (AChE). The assay is described as follows: standard Abcam fluorescent AChE assay in a microplate (plate reader). The format is biochemical. Particulars: human tears; microtiter plate format. An excerpt: In addition, we performed side-by-side measurements of a series of samples including the human sample matrices and recombinantly expressed AChE with the SpinDx assay and with a traditional assay including a microtiter plate and plate reader (FIG. 7A-7B). The two assay formats show similar trends in the levels of activity, although certain samples (e.g., unkilled CSF) look dramatically higher in SpinDx than in the plate format.

Entries after “also recorded” stand apart in the source; their conditions may differ.

Consider `CCOP(=O)(OCC)Oc1ccc([N+](=O)[O-])cc1` [paraoxon], for which, in assay [1], the “reduction (kill) of cholinesterase activity by inhibitor” value is recorded as “could not be reduced; also recorded: can't be killed”. Moreover, in assay [2], the “reduction (kill) of apparent AChE activity by inhibitor” value is “can't be killed”.

For the origin of these results see US11680946B1, “Detection of cholinesterase inhibition with microfluidic devices and systems thereof” (priority 2020, dated 2023).
